Results taken from patent US9592272B2, “Treatment of osteoarthritis with incretin hormones or analogues thereof” (UNIVERSITE PIERRE ET MARIE CURIE (PARIS 6), priority 2012, dated 2017).

What was measured:
[1] = clinical trials (Krzeski et al., 2007); cited from earlier work
[2] = system: MMP-3, MMP-9 and MMP-13 expression in chondrocytes; experiment: Expression of MMP-3, MMP-9 and MMP-13 in primary chondrocytes in response to IL-1β (real-time quantitative RT-PCR); assay type: cell-based, murine; conditions: peptide 10 nM; IL-1β 0.1 or 1 ng/ml, 24 h; FIG. 1
Protocol: (§1) The murine chondrocytes were obtained after enzymatic digestion of femoral heads and knees of 4- to 6-day-old mice. The cells were amplified in a monolayer for 1 week (Gosset et al., 2008).
(§2) The cultures were deprived in a serum-free culture medium for 24 h before treatment.
(§3) The RNAs were extracted using the RNeasy Mini kit (Qiagen) and then reverse-transcribed using the Omniscript kit (Qiagen). The expression level of the genes of interest was quantified by real-time PCR (Light Cycler LC480), relative to the HPRT reference gene, using the following primers: […]

[3] = system: MMP-3, MMP-9 and MMP-13 expression in osteoblasts; experiment: Expression of MMP-3, MMP-9 and MMP-13 in primary osteoblasts in response to IL-1β (real-time quantitative RT-PCR); assay type: cell-based, murine; conditions: peptide 10 nM, IL-1β 0.1 or 1 ng/ml, 24 h; for overexpression of the prodegradative enzymes MMP-3 and MMP-13 in the osteoblasts in response to an IL-1β treatment: FIGS. 2A, B and C
Protocol: The murine osteoblasts were obtained after enzymatic digestion of the skulls of 4- to 6-day-old mice. The cells were amplified for 3 weeks, in the presence of ascorbic acid and β-glycerophosphate. The osteoblasts at the end of culture formed a three-dimensional membrane (Sanchez et al., 2009).
as §2, §3

[4] = in vivo, iv; cited from earlier work
[5] = system: prostaglandin E2 (PGE2) release by chondrocytes; experiment: Prostaglandin E2 release by chondrocytes in response to IL-1β (EIA on culture supernatants); assay type: cell-based, murine
Protocol: as §1, §2
The amount of PGE2 produced by the cells was measured by means of the prostaglandin E2 monoclonal EIA kit (Cayman) using the culture supernatants.

| Compound | toxicity revealed during clinical trials [1] | overexpression of the prodegradative enzymes MMP-3, MMP-9 and/or MMP-13 in the chondrocytes in response to an IL-1β treatment [2] | overexpression of the prodegradative enzymes MMP-3 and MMP-13 in the osteoblasts in response to an IL-1β treatment [3] | half-life time [4] | overexpression of MMP-9 in the osteoblasts in response to an IL-1β treatment ([3]; FIG. 2D) | release of prostaglandin E2 (PGE2) by the chondrocytes in response to an IL-1β treatment ([5]; peptide 10 nM, IL-1β 1 ng/ml, 24 h, FIG. 3) | induction of PGE2 by peptide alone, chondrocytes ([5]; peptide alone, without IL-1β) |
| --- | --- | --- | --- | --- | --- | --- | --- |
| COc1ccc(C(=O)Nc2ccc(S(=O)(=O)NC(CC#CCN3CCOCC3)C(=O)O)cc2)cc1 (centres unmarked) [PG-116800] | musculoskeletal toxicity | – | – | – | – | – | – |
| GIP (1-42) | – | inhibits | inhibits | approximately 2 minutes | – | – | – |
| GLP-1 (7-36) amide | – | inhibits | inhibits | – | inhibits | inhibits | does not induce |
| GLP-1 (7-37) | – | inhibits | inhibits | – | – | – | – |
